Results on three compounds are retold here after patent publication US20050118664A1, “Fluorogenic protease substrates” (priority 2002, published 2005).

The target in data set [1] is T1, PfSUB-1 (Plasmodium falciparum, UniProt O61142).
T1 construct: made in house; host or cells: baculovirus/insect cell system
The settings on record: from reference [4]; cited from earlier work.

Data set [2] has as its target T1, PfSUB-1. In words: Multi-well fluorescence assay of PfSUB-1 activity with or without inhibitor. The class given is biochemical. As for the experimental part:
Purified recombinant PfSUB-1 at a range of concentrations in digestion buffer was dispensed into 50 μl aliquots in wells of white 96-well microtitre plates (FluoroNunc, NUNC). […] Plates were sealed and incubated at 37° C. for 18 h before being read on a Perkin Elmer LS-50B Luminescence spectrometer fitted with a LS50B WPR multi-plate reader accessory. Measurements were performed at an excitation wavelength of 552 nm, slit width 4 nm, and an emission wavelength of 580 nm, slit width 2.5 nm. Data collection was managed using Perkin Elmer FL WinLab software.

For data set [3], the target named is T1, PfSUB-1. In words: Protease digestion of fluorogenic substrate with recombinant PfSUB-1, fluorescence readout. It counts as biochemical. As for the experimental part: (§1) All dye concentrations were determined from the absorption at 528 nm, with ε 52,000 M^−1cm^−1 [5]. Solutions of pepF1-R and its isomer derived from 5-IATR were prepared at ˜4 μM by dilution from stock DMSO solutions into digestion buffer (20 mM Tris, 50 mM NaCl, 12 mM CaCl2, 0.05% NP-40 (w/v), pH 7.6). It was necessary to include NP-40 detergent (Boehringer Mannheim) in all buffers containing the labelled peptides to avoid non-specific adsorption to glass and plasticware. Portions (4 ml) of each solution were treated with an aliquot of pronase (16 μl of 1 mg ml^−1 in the same buffer) and incubated at room temperature for 30 min. Absorbance spectra of these solutions and of the corresponding labelled peptides prior to pronase treatment were recorded (Beckman DU640 spectrophotometer).
(§2) For protease digestion experiments, pepF1-R was diluted directly from DMSO stocks into digestion buffer (20 mM Tris-HCl pH 7.6, 50 mM NaCl, 12 mM CaCl2, ±0.05% w/v Nonidet P40). The DMSO concentration in digestion experiments was maintained below 1% (v/v).
A sample of pepF1-R digested with PfSUB-1 was subjected to RP-HPLC-fractionation (Vydac 4.6 mm×25 cm C18 reversed-phase column, eluted at 1 ml min^−1 with a 4.5-58.5% (v/v) gradient of acetonitrile in 0.1% TFA). In addition to a small peak at 38.5 min corresponding to residual pepF1-R, two large new fluorescent peaks of equal height were evident, with retention times of 29.6 and 34.0 min.
(§3) For these measurements, the compound was diluted 200-fold from a 230 μM stock solution in DMSO into 20 mM Tris-HCl pH 7.6. Identical spectra were obtained upon dilution into 20 mM acetate buffer, pH 5.0, or 20 mM ethanolamine pH 10.0. All buffer solutions contained 0.05% NP-40 detergent (w/v).

For a further data set, the system named is pronase. In words: Protease digestion of fluorogenic substrate with pronase, fluorescence readout. The class given is biochemical. The method, then:
as §1, §2, §3

The target in data set [4] is T1, PfSUB-1. The settings on record: recombinant PfSUB-1 and authentic parasite-derived enzyme; reference [4]; cited from earlier work.

Where a SMILES comes first, the peptide text is derived from it. The star is where a group is joined. X1 = CN(C)c1ccc2c(-c3cc(NC(=O)C*)ccc3C(=O)[O-])c3ccc(=[N+](C)C)cc-3oc2c1 Some results are limits rather than exact numbers.

T1 sequence (O61142 220-690): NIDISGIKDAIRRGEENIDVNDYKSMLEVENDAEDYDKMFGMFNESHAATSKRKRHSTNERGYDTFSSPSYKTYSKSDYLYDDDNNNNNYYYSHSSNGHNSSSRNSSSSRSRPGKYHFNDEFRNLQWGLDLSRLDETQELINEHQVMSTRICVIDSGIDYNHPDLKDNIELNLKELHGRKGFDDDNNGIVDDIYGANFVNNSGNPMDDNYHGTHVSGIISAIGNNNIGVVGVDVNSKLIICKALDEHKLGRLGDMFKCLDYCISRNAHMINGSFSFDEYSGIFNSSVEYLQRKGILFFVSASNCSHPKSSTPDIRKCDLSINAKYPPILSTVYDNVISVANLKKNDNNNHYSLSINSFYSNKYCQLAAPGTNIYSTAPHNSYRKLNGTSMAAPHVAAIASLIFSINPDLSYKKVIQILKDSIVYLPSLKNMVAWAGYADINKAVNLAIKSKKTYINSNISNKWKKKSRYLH

Consider `O=C(O)c1cc[c]([Hg+])cc1.[OH-]` [pHMB, p-hydroxymercuribenzoate], for which the “inhibition of PfSUB-1 (in words)” value at PfSUB-1 [1] is listed as “potent inhibitor”. Further, the “fluorescence increase of pepF1-R with inhibitor-pre-treated PfSUB-1” value on PfSUB-1 [2] (PfSUB-1 pre-treated with 1 mM inhibitor) is listed as “no fluorescence increase”. In addition, at PfSUB-1 [2] (multi-well assay, 0.5 μl 100 mM pHMB per 50 μl well, 30 min pre-mix, 37° C. 18 h), the “effect of inhibitor on PfSUB-1-dependent fluorescence increase of pepF1-R” value was “virtually completely ablated”.
In turn, `CC[C@H](C)[C@H](NC(=O)[C@H](CC(=O)O)NC(=O)[C@@H](NC(=O)[C@H](CC(N)=O)NC(=O)[C@H](CC(=O)O)NC(=O)[C@H](C)NC(=O)[C@H](CO)NC(=O)[C@@H](NC(=O)[C@H](CSCC(=O)Nc1ccc(C(=O)[O-])c(-c2c3ccc(=[N+](C)C)cc-3oc3cc(N(C)C)ccc23)c1)NC(C)=O)C(C)C)[C@@H](C)CC)C(=O)N[C@@H](CSCC(=O)Nc1ccc(C(=O)[O-])c(-c2c3ccc(=[N+](C)C)cc-3oc3cc(N(C)C)ccc23)c1)C(=O)O` [pepF1-R] (Ac-C(X1)VSADNIDIC(X1)-OH) showed a solubility of at most 50 µM. At PfSUB-1 [3] (addition of recombinant PfSUB-1, 20 mM Tris-HCl pH 7.6, 0.05% NP-40, ex 552 nm, em 580 nm), the “increase in fluorescence on cleavage” value was “greater than 25 fold”. Besides, the “cleavage site of substrate (RP-HPLC / mass spectrometry of products)” value at PfSUB-1 [3] (digested with PfSUB-1) was “cleavage at the Asp-Asn bond”. For the same compound, the “fluorescence change on incubation with protease (in words)” value at PfSUB-1 [3] (purified recombinant PfSUB-1, digestion buffer) is recorded as “dramatic, time-dependent increase in fluorescence”. Besides, the “increase in fluorescence on cleavage” value in the data set with pronase (addition of pronase, 20 mM Tris-HCl pH 7.6, 0.05% NP-40, ex 552 nm, em 580 nm) is “greater than 25 fold”. Further, in the data set with pronase (pronase, digestion buffer), the “fluorescence change on incubation with protease (in words)” value is recorded as “dramatic, time-dependent increase in fluorescence”.
With “Ac-LVSADNIDIS—OH: N-acetylated synthetic decapeptide based on the PfSUB-1 autocatalytic cleavage site (Ac-LVSADNIDIS-OH)”, the “cleavage by PfSUB-1 (in words)” value with PfSUB-1 [4] is listed as “cleaved at the Asp-Asn bond”.
